From patent US8834843B2, “Imaging method” (GE Healthcare Limited, priority 2007, dated 2014)
Entries after “also recorded” stand apart in the source; their conditions may differ. Read-outs that look alike come from different tables or passages of the source. Numbered stars: 1 amine (or outer) side, 2 acyl side, 3 side chain; on linkers, the order of the positions; unused ones are H or OH. Bridge positions count the residues as written; N and C are the ends. Side chains are listed from the residue outwards. Peptide text beside a SMILES is read from it. * marks the point of attachment. X1 = C/C(=N\O)C(C)(C)NCCC(CCNC(C)(C)/C(C)=N/O)CCN*; Glutaryl = O=C(CCCC(=O)[*:2])[*:1]; X2 = NC(=O)COCC(=O)NCCOCCOCCOCCN*

What was measured:
BDL fibrogenic liver = experiment: Biodistribution in BDL rats with and without excess cold compound; assay type: in vivo; conditions: rat, in vivo
Experimental: (§1) On the appropriate day post surgery BDL and sham animals were removed and put under isoflurane anaesthesia, then each animal was injected with 0.3 ml intravenously (i.v.) via tail vein (˜3MBq). At the appropriate time point post-injection of the test item, each animal was re-anaesthetised with isoflurane, sacrificed by cervical dislocation weighed and the weight recorded via a barcode scanning system. Each animal was dissected and the following organs and tissues were removed and counted using BASIL counter protocol 40 or manual counting:
(§2) The recorded activity in a whole organ (e.g., liver) was corrected for background radioactivity and for radioactive decay and the biodistribution of radioactivity calculated by reference to Formula I:
(§3) [formula] where: • A=counts per second measured in organ • B=total counts per second measured in all samples (excluding the injection site)
(§4) The percentage of injected radioactivity in the weighed tissue samples (e.g., blood) was calculated to give % i.d. in the entire tissue by reference to Formula 2:
(§5) [formula] where: • Zs=counts per second in sample • Ws=weight of sample in grams • Wb=weight of animal in grams immediately after sacrifice • B=total counts per second measured in all the samples (excluding the injection site) • F=tissue specific factor representing the mass of the tissue as a proportion of the total body weight of the animal
(§6) The biodistribution of radioactivity was investigated in 15 days post-operatively in BDL and sham-operated male Sprague Dawley rats (procedures described in Example 3) 1 hour following of intravenous injection via tail vein of ˜3 MBq of Compound 8, both before and after addition of 1:100 and 1:10,000 fold excess of cold Compound 8. At the appropriate time point post-injection of the test Item, each animal was re-anaesthetised with isoflurane, sacrificed by cervical dislocation and weighed. Each animal was dissected and organs and tissues (see Tables 5 and 6 below) were removed and counted using BASIL counter protocol 40 or manual counting.

[1] = as above; assay type: in vivo; conditions: male, Sprague Dawley, rat, iv, total radioactivity, BDL rats, 15 days post-op, 1 hour post-injection; for dose excreted at 1 h: bile and urine
Experimental: as §1, §2, §3, §4, §5, §6

[2] = system: fibrogenic livers in BDL model; experiment: Liver uptake in BDL vs sham rats at 15 days post-op, vs negative control; assay type: in vivo, rat; conditions: one hour post-injection
Experimental: as §1
The BDL and sham animal models were set up as described in Example 3. At 15 days post-operatively, one of Compound 3, Compound 8 or a negative control was administered to each animal and liver uptake assessed as described in Example 3.

dose excreted at 1 h ([1]; 3 MBq, 10K-fold excess cold Compound 8): 41.6%
dose excreted at 1 h ([1]; 3 MBq, 100-fold excess cold Compound 8): 38.3%
dose excreted at 1 h ([1]; 3 MBq, no excess): 41%
tissue uptake dose at 1 h ([1]; blood, 10K-fold excess cold Compound 8, read-out: Activity in Blood, Mean): 1.6 %ID
tissue uptake dose at 1 h ([1]; blood, 100-fold excess cold Compound 8, read-out: Activity in Blood, Mean): 1.61 %ID
tissue uptake dose at 1 h ([1]; blood, no excess, read-out: Activity in Blood, Mean): 1.47 %ID
tissue uptake dose at 1 h ([1]; bone, 10K-fold excess cold Compound 8, read-out: Activity in Bone, Mean): 3.18 %ID
tissue uptake dose at 1 h ([1]; bone, 100-fold excess cold Compound 8, read-out: Activity in Bone, Mean): 2.97 %ID
tissue uptake dose at 1 h ([1]; bone, no excess, read-out: Activity in Bone, Mean): 3.02 %ID
tissue uptake dose at 1 h ([1]; carcass, 10K-fold excess cold Compound 8, read-out: Activity in Carcass, Mean): 6.14 %ID
tissue uptake dose at 1 h ([1]; carcass, 100-fold excess cold Compound 8, read-out: Activity in Carcass, Mean): 6.47 %ID
tissue uptake dose at 1 h ([1]; carcass, no excess, read-out: Activity in Carcass, Mean): 4.36 %ID
tissue uptake dose at 1 h ([1]; heart, 10K-fold excess cold Compound 8, read-out: Activity in Heart, Mean): 0.14 %ID
tissue uptake dose at 1 h ([1]; heart, 100-fold excess cold Compound 8, read-out: Activity in Heart, Mean): 0.13 %ID
tissue uptake dose at 1 h ([1]; heart, no excess, read-out: Activity in Heart, Mean): 0.13 %ID
tissue uptake dose at 1 h ([1]; injection site, 10K-fold excess cold Compound 8, read-out: Activity in Injection Site, Mean): 1.68 %ID
tissue uptake dose at 1 h ([1]; injection site, 100-fold excess cold Compound 8, read-out: Activity in Injection Site, Mean): 1.75 %ID
tissue uptake dose at 1 h ([1]; injection site, no excess, read-out: Activity in Injection Site, Mean): 1.32 %ID
tissue uptake dose at 1 h ([1]; kidneys, 3 MBq, 10K-fold excess cold Compound 8, read-out: Activity in Kidneys, Mean): 3.61 %ID
tissue uptake dose at 1 h ([1]; kidneys, 3 MBq, 100-fold excess cold Compound 8, read-out: Activity in Kidneys, Mean): 4.2 %ID
tissue uptake dose at 1 h ([1]; kidneys, no excess, read-out: Activity in Kidneys, Mean): 3.78 %ID
tissue uptake dose at 1 h ([1]; liver, 10K-fold excess cold Compound 8, read-out: Activity in Liver, Mean): 9.81 %ID
tissue uptake dose at 1 h ([1]; liver, 100-fold excess cold Compound 8, read-out: Activity in Liver, Mean): 16.1 %ID
tissue uptake dose at 1 h ([1]; liver, no excess, read-out: Activity in Liver, Mean): 12.7 %ID
tissue uptake dose at 1 h ([1]; lung, 10K-fold excess cold Compound 8, read-out: Activity in Lung, Mean): 0.5 %ID
tissue uptake dose at 1 h ([1]; lung, 100-fold excess cold Compound 8, read-out: Activity in Lung, Mean): 0.5 %ID
tissue uptake dose at 1 h ([1]; lung, no excess, read-out: Activity in Lung, Mean): 0.43 %ID
tissue uptake dose at 1 h ([1]; muscle, 10K-fold excess cold Compound 8, read-out: Activity in Muscle, Mean): 9.61 %ID
tissue uptake dose at 1 h ([1]; muscle, 100-fold excess cold Compound 8, read-out: Activity in Muscle, Mean): 8.76 %ID
tissue uptake dose at 1 h ([1]; muscle, no excess, read-out: Activity in Muscle, Mean): 10.8 %ID
tissue uptake dose at 1 h ([1]; skin, 10K-fold excess cold Compound 8, read-out: Activity in Skin, Mean): 13 %ID
tissue uptake dose at 1 h ([1]; skin, 100-fold excess cold Compound 8, read-out: Activity in Skin, Mean): 12 %ID
tissue uptake dose at 1 h ([1]; skin, no excess, read-out: Activity in Skin, Mean): 12.6 %ID
tissue uptake dose at 1 h ([1]; small and large intestine, 10K-fold excess cold Compound 8, read-out: Activity in Small & Large Intestine, Mean): 8.58 %ID
tissue uptake dose at 1 h ([1]; small and large intestine, 100-fold excess cold Compound 8, read-out: Activity in Small & Large Intestine, Mean): 7.41 %ID
tissue uptake dose at 1 h ([1]; small and large intestine, no excess, read-out: Activity in Small & Large Intestine, Mean): 8.32 %ID
tissue uptake dose at 1 h ([1]; spleen, 10K-fold excess cold Compound 8, read-out: Activity in Spleen, Mean): 0.52 %ID
tissue uptake dose at 1 h ([1]; spleen, 100-fold excess cold Compound 8, read-out: Activity in Spleen, Mean): 0.57 %ID
tissue uptake dose at 1 h ([1]; spleen, no excess, read-out: Activity in Spleen, Mean): 0.51 %ID
tissue uptake dose at 1 h ([1]; stomach, 10K-fold excess cold Compound 8, read-out: Activity in Stomach, Mean): 1.69 %ID
tissue uptake dose at 1 h ([1]; stomach, 100-fold excess cold Compound 8, read-out: Activity in Stomach, Mean): 0.96 %ID
tissue uptake dose at 1 h ([1]; stomach, no excess, read-out: Activity in Stomach, Mean): 0.89 %ID
tissue uptake dose at 1 h ([1]; thyroid, 10K-fold excess cold Compound 8, read-out: Activity in Thyroid, Mean): 0.06 %ID
tissue uptake dose at 1 h ([1]; thyroid, 100-fold excess cold Compound 8, read-out: Activity in Thyroid, Mean): 0.04 %ID
tissue uptake dose at 1 h ([1]; thyroid, no excess, read-out: Activity in Thyroid, Mean): 0.04 %ID
SMILES: C/C(=N\O)C(C)(C)NCCC(CCNC(=O)CCCC(=O)NCCCC[C@@H]1NC(=O)CSC[C@@H](C(=O)NCCOCCOCCOCCNC(=O)COCC(N)=O)NC(=O)[C@H](Cc2ccccc2)NC(=O)[C@@H]2CSSC[C@H](NC1=O)C(=O)N[C@@H](CCCNC(=N)N)C(=O)NCC(=O)N[C@@H](CC(=O)O)C(=O)N2)CCNC(C)(C)/C(C)=N/O (some centres unmarked) [Compound 8] ({CH2CO}-K([Glutaryl-X1])CRGDCFC-X2; disulfide 2-6; thioether N-8)
Binding to BDL fibrogenic liver with excess cold compound (in words) (BDL fibrogenic liver): Specifically Inhibited by Cold Compound 8
Liver retention/uptake in BDL compared to sham animals (in words) [2]: significantly higher liver uptake; also recorded: significantly retained
